The text below walks through data of publication PMC4730117, “In vitro Biochemical Characterization of All Barley Endosperm Starch Synthases” (Frontiers in Plant Science, 2016).

Holding throughout (assay): glycan microarray on nitrocellulose, anti-His detection
Assay [1] addresses T1, HvSSIV (Hordeum vulgare, UniProt F2CUZ5).
T1 construct: without predicted chloroplast transit peptide, C-terminal His-tag, codon-optimised, E. coli
T1 sequence (F2CUZ5 49-914): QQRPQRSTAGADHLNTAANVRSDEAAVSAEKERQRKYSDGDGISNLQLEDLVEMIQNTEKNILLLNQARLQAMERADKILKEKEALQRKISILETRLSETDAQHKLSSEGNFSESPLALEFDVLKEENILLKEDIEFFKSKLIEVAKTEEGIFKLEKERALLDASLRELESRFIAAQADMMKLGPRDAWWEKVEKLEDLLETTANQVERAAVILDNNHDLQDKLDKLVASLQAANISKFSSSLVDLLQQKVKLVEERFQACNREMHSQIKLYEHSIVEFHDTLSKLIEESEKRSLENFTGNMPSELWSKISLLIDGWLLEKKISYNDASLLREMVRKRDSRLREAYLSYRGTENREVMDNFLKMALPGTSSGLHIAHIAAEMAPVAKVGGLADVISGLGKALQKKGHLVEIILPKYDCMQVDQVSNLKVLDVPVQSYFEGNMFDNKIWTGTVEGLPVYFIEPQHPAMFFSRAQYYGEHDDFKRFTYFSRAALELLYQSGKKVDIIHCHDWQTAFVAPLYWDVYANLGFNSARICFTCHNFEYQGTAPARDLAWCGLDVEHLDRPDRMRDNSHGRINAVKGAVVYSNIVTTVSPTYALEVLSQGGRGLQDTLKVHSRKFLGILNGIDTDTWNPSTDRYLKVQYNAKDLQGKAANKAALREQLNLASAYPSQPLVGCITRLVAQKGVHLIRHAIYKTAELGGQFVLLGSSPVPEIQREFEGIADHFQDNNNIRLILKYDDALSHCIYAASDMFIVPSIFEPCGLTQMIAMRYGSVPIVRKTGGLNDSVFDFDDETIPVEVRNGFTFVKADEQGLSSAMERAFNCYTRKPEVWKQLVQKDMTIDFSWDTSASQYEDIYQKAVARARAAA
As to conditions: protein 30 μg/mL in PBS with 5% milk powder; printed oligosaccharide; strong binding.

Assay [2] addresses T2, HvSSIIa (Hordeum vulgare, UniProt Q8H1Y8).
T2 construct: without predicted chloroplast transit peptide, N-terminal His-tag, codon-optimised, E. coli
T2 sequence (Q8H1Y8 61-802): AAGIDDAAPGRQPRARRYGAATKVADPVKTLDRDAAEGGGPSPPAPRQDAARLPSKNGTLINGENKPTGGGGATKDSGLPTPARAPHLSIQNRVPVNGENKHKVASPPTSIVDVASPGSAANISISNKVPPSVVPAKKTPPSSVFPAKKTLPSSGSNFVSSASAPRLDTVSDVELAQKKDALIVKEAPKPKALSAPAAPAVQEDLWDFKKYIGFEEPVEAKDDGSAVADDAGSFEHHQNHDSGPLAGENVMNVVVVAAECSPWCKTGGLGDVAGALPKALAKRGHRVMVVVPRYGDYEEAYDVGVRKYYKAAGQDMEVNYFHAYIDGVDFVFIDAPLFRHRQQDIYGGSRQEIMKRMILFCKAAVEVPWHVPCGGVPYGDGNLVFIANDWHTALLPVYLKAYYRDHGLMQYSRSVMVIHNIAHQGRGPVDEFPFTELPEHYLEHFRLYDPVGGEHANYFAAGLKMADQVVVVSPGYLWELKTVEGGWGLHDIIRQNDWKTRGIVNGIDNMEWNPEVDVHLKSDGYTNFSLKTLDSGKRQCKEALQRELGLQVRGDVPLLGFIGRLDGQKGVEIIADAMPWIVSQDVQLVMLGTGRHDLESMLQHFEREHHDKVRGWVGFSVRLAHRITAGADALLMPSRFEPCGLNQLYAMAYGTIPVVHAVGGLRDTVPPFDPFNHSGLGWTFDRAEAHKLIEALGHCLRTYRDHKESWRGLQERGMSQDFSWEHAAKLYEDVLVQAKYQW
As to conditions: protein 30 μg/mL in PBS with 5% milk powder; printed oligosaccharide; strong binding.

Assay [3] addresses T3, CBM53-3 (Hordeum vulgare, UniProt G1FUP7).
T3 construct: third CBM53 domain of HvSSIIIa only, C-terminal His-tag, vector pET151, E. coli; borders only in supplement
As to conditions: protein 30 μg/mL in PBS with 5% milk powder; printed oligosaccharide; strong binding.

Assay [4] addresses T4, HvGBSSI (Hordeum vulgare, UniProt P09842).
T4 construct: gene WAXY; without predicted chloroplast transit peptide, N-terminal His-tag, codon-optimised, E. coli
T4 sequence (P09842 71-603): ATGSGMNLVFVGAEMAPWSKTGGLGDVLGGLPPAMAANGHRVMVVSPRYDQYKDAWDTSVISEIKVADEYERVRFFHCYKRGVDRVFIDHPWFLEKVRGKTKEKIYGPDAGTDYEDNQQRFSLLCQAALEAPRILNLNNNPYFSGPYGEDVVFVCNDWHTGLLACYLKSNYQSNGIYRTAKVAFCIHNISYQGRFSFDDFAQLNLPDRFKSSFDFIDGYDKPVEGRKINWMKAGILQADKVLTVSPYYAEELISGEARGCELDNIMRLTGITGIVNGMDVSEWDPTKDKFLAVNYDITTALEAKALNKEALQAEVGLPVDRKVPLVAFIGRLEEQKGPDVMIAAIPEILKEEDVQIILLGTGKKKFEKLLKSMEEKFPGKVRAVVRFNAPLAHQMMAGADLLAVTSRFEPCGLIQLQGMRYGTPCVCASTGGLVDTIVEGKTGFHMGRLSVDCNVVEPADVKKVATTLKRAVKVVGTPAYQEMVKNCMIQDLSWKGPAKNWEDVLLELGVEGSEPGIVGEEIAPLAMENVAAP
The settings on record: protein 30 μg/mL in PBS with 5% milk powder; printed oligosaccharide; weaker binding.

T3 sequence (G1FUP7 entry or part of it): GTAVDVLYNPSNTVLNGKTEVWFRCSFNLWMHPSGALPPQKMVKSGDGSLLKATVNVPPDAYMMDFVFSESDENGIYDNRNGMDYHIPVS

Take `O=P(O)(O)O[C@H]1[C@H](O[C@H]2O[C@H](CO)[C@@H](O)[C@H](O)[C@H]2O)[C@@H](CO)OC(O)[C@@H]1O` (stereo partly shown) [3-phosphomaltose]: the “glycan microarray on nitrocellulose, anti-His detection” value is “SSIIa, CBM53-3, and SSIV all showed strong binding to 3-phosphomaltose” in assay [1]; “SSIIa, CBM53-3, and SSIV all showed strong binding to 3-phosphomaltose” in assay [2]; “SSIIa, CBM53-3, and SSIV all showed strong binding to 3-phosphomaltose” in assay [3]; “while GBSSI showed weaker binding and binding was non-detectable for SSI” in assay [4].
